In patent US9732094B2, “Arylquinazolines” (Merck Patent GmbH, priority 2013, dated 2017):
Where two headings read alike, the source gives them in different places.

Experiments:
Kv11.1 (hERG) = Kv11.1 (hERG) (Homo sapiens (Human), UniProt Q12809); assay: Kv11.1 (hERG) ion channel activity (patch clamp assay), HEK293 cells transfected with hERG gene
DNA-PK = DNA-PK (Homo sapiens (Human), UniProt P78527); assay: DNA-PK assay (biochemical), flashplate 33P-ATP kinase assay
Outline: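 Radiometric kinase reaction in streptavidin-coated flashplates, stopped with 200 mM EDTA, then 30 min room-temperature incubation and saline washes.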

[1] = biological target: DNA-PK phosphorylation at serine 2056 (Homo sapiens (Human), UniProt P78527); assay: DNA-PK phosphorylation at serine 2056 (cellular), bleomycin-treated HCT116 cells, ELISA; format: cell-based; conditions: read-out: IC50 pDNA-PK
Outline: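 HCT116, MEM alpha + 10% FCS, 37 °C/10% CO2, seeded o/n. Cpd + 10 μM bleomycin, 6 h. ELISA, chemiluminescence; phospho/total DNA-PKcs ratio, DMSO = blank.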

[2] = read-out: Ki [Kv1.11 hERG], hERG patch clamp assay (cells without asterisk)
[3] = cellular DNA-PK phosphorylation at serine 2056, HCT116
[4] = read-out: Ki [Kv1.11 hERG], patch clamp, HEK293 transfected with hERG gene
[5] = cellular, HCT116 cells, 10 μM bleomycin, six hours
[6] = Ki [Kv1.11 hERG], patch clamp, HEK293 transfected with hERG gene

Chain of Kv11.1 (hERG) (Q12809 whole entry): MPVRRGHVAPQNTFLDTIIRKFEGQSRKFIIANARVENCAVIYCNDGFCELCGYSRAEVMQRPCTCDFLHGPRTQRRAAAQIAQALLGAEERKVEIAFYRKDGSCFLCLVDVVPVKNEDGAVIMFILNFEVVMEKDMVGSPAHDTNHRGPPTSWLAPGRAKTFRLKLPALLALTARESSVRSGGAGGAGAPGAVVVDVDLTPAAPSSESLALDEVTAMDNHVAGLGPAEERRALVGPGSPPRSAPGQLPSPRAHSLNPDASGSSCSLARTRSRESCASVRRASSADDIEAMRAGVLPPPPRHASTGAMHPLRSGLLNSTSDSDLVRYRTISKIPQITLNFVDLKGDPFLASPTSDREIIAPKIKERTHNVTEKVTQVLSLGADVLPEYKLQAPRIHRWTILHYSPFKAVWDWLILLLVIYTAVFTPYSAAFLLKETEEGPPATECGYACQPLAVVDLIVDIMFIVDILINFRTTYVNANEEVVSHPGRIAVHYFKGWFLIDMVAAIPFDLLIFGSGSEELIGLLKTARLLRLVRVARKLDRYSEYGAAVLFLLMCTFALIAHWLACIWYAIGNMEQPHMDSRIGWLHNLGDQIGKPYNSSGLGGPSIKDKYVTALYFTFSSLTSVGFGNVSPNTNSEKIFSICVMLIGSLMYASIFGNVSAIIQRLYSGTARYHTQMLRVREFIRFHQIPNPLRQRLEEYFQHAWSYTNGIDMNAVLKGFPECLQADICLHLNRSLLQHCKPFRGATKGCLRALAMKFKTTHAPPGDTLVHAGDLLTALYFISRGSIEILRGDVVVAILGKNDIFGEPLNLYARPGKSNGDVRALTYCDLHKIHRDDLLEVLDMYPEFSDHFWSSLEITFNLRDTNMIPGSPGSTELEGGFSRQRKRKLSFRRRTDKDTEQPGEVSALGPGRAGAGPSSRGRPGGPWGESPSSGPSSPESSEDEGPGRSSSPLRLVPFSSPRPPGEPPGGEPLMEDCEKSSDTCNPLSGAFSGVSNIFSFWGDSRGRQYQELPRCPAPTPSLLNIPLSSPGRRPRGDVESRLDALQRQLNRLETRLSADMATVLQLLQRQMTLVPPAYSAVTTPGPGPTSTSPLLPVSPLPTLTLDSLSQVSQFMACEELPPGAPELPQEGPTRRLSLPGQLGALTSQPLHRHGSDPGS

IC50 (DNA-PK; enzymatic, 5 μM ATP) | IC50 [1, 5] | SMILES | Ki (Kv11.1 (hERG); [4]) | other results
– | – | OC(c1ccc2ncnn2c1)c1cc(-c2ncnc3cc(N4CCOCC4)ccc23)c(F)cc1F (stereo not drawn) [Example 222, [2,4-Difluro-5-(7-morpholin-4-yl-quinazolin-4-yl)-phenyl]-[l,2,4]-triazolo[1,5-a]pyridin-6-ylmethanol] | – | Ki (Kv11.1 (hERG); read-out: Ki [Kv1.11 hERG], Table 7): > 25 µM; IC50 (DNA-PK; Table 7): 0.003 to 0.007 µM; IC50 ([1]; Table 7, HCT116 cells): 0.5 to 5 µM
– | – | NC(=O)C(c1ccc(F)c(-c2ncnc3cc(N4CCOCC4)ccc23)c1)c1nnc(Cl)c2ccsc12 (stereo not drawn) [Example 290, 2-(4-Chlorothieno-[2,3-d}pyridazin-7-yl)-2-[4-fluoro-3-(7-morpholin-4-yl-quinazolin-4-yl)-phenyl]acetamide] | – | Ki (Kv11.1 (hERG); [2]): < 10 µM; IC50 (DNA-PK; biochemical DNA-PK assay): 0.003 to 0.007 µM; IC50 [1, 3]: 5 to 10 µM
< 0.003 µM | 0.5 to 5 µM | CCn1nc(C(O)c2cc(-c3ncnc4cc(N5CCOCC5)ccc34)c(F)cc2Cl)ccc1=O (stereo not drawn) [Example 97, 6-{[2-Chloro-4-fluoro-5-(7-morphohn-4-yl-quinazolin-4-yl)phenyl]-hydroxymethyl}-2-ethyl-2H-pyridazin-3-one] | > 25 µM | –
< 0.003 µM | < 0.5 µM | N#CCOc1ccc(C(O)c2cc(-c3ncnc4cc(N5CCOCC5)ccc34)c(F)cc2Cl)nn1 (stereo not drawn) [Example 119, (6-{(2-Chloro-4-fluoro-5-(7-morpholin-4-yl-quinazolin-4-yl)-phenyl] hydroxy-methyl}pyridazin-3-yl-oxy)acetonitrile] | – | Ki (Kv11.1 (hERG); [6]): 15 to 25 µM
0.003 to 0.007 µM | 10 to 30 µM | NC(=O)Cn1nc(C(O)c2cc(-c3ncnc4cc(N5CCOCC5)ccc34)c(F)cc2Cl)ccc1=O (stereo not drawn) [Example 98, 2-{3-{[2-Chloro-4-fluoro-5-(7-morpholin-4-ylquinazolin-4-yl)-phenyl]hydroxymethyl}-6-oxo-6H-pyridazin-1-yl)acetamide] | > 25 µM | –
0.003 to 0.007 µM | 0.5 to 5 µM | OC(c1ccc(F)c(-c2ncnc3cc(N4CCOCC4)ccc23)c1)c1nccnc1N1CCCC1 (stereo not drawn) [Example 14, [4-Fluoro-3-(7-morpholin-4-yl-quinazolin-4-yl)phenyl]-(3-pyrrolidin-1-yl-pyrazin-2-yl)methanol] | > 25 µM | –
< 0.003 µM | < 0.5 µM | Cc1cnc(C)c(C(O)c2cc(-c3ncnc4cc(N5CCOCC5)ccc34)c(F)cc2F)n1 (stereo not drawn) [Example 88] | – | Ki (Kv11.1 (hERG); [6]): 15 to 25 µM
0.007 to 0.03 µM | 0.5 to 5 µM | COc1ccc(C(O)c2cc(-c3ncnc4cc(N5CCOCC5)ccc34)c(F)cc2F)c(F)c1 (stereo not drawn) [Example 124, [2,4-Difluoro-5-(7-morpholin-4-yl-quinazolin-4-yl)-phenyl]-(2-fluoro-4-methoxy-phenyl)methanol] | < 10 µM | –
– | – | O=c1ccc(C(O)c2ccc(F)c(-c3ncnc4cc(N5CCOCC5)ccc34)c2)n[nH]1 (stereo not drawn) [Example 367, 6-{[4-Fluoro-3-(7-morpholin-4-yl-quinazolin-4-yl)-phenyl]hydroxy-methyl}-2H-pyridazin-3-one] | – | Ki (Kv11.1 (hERG); [2]): > 25 µM; IC50 (DNA-PK; biochemical DNA-PK assay): < 0.003 µM; IC50 [1, 3]: 0.5 to 5 µM
– | – | O=c1[nH]nc(C(O)c2ccc(F)c(-c3ncnc4cc(N5CCOCC5)ccc34)c2)c2ccsc12 (stereo not drawn) [Example 338, 4-[[4-Fluoro-3-(7-morpholino-quinazolin-4-yl)-phenyl]hydroxy-methyl]-6H-thieno[2,3-d}-pyridazin-7-one] | – | Ki (Kv11.1 (hERG); [2]): > 25 µM; IC50 (DNA-PK; biochemical DNA-PK assay): < 0.003 µM; IC50 [1, 3]: 0.5 to 5 µM
– | – | OC(c1cccc(-c2ncnc3cc(N4CCOCC4)ccc23)c1)(c1nccs1)C(F)(F)F (stereo not drawn) [Example 159, 2,2,2-Trifluoro-1-[3-(7-morpholin-4-yl-quinazolin-4-yl)-phenyl]-1-thiazol-2-ylethanol] | – | Ki (Kv11.1 (hERG); read-out: Ki [Kv1.11 hERG], Table 5): < 10 µM; IC50 (DNA-PK; Table 5): 0.007 to 0.03 µM; IC50 ([1]; Table 5, HCT116 cells): 10 to 30 µM
< 0.003 µM | 0.5 to 5 µM | COCCOc1ccc(C(O)c2cc(-c3ncnc4cc(N5CCOCC5)ccc34)c(F)cc2Cl)nn1 (stereo not drawn) [Example 112, [2-Chloro-4-fluoro-5-(7-morpholin-4-yl-quinazolin-4-yl)-phenyl]-[6-(2-methoxyethoxy)-pyridazin-3-yl]-methanol] | – | Ki (Kv11.1 (hERG); [6]): 15 to 25 µM
